# In PubChem BioAssay (NCI):
#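 Growth conditions: 96-well plates. Treatment: test compound, 48 hours, 5 concentrations. Analysis: linear interpolation between bracketing concentrations; unreached endpoints set to highest concentration. Here, GI50 denotes the concentration required for 50% inhibition of growth. TGI denotes the concentration required for complete inhibition of growth.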
# Assays:
# Experiment in all cases: inhibition of tumour cell growth, NCI panel, 48 h
# NCI-H23 lung = system: NCI-H23 lung
# NCI-H460 lung = system: NCI-H460 lung
# NCI-H522 lung = system: NCI-H522 lung
# NCI/ADR-RES ovarian = system: NCI/ADR-RES ovarian
# OVCAR-3 ovarian = system: OVCAR-3 ovarian
# OVCAR-4 ovarian = system: OVCAR-4 ovarian
# OVCAR-5 ovarian = system: OVCAR-5 ovarian
# OVCAR-8 ovarian = system: OVCAR-8 ovarian
# PC-3 prostate = system: PC-3 prostate
# RPMI-8226 leukemia = system: RPMI-8226 leukemia
# RXF 393 renal = system: RXF 393 renal
# SF-268 CNS = system: SF-268 CNS
# SF-295 CNS = system: SF-295 CNS
# SF-539 CNS = system: SF-539 CNS
# SK-MEL-2 melanoma = system: SK-MEL-2 melanoma
# SK-MEL-28 melanoma = system: SK-MEL-28 melanoma
# SK-MEL-5 melanoma = system: SK-MEL-5 melanoma
# SK-OV-3 ovarian = system: SK-OV-3 ovarian
# SN12C renal = system: SN12C renal
# SNB-19 CNS = system: SNB-19 CNS
# SNB-75 CNS = system: SNB-75 CNS
# SW-620 colon = system: SW-620 colon
# T-47D breast = system: T-47D breast
# TK-10 renal = system: TK-10 renal
# U251 CNS = system: U251 CNS
# UACC-257 melanoma = system: UACC-257 melanoma
# UACC-62 melanoma = system: UACC-62 melanoma
# UO-31 renal = system: UO-31 renal
compound,measurement,setting,value
Cc1ccc(Cl)cc1Nc1nc(C(F)(F)F)ccc1C(=O)Oc1ccc(Cl)cc1,TGI,NCI-H23 lung,27.8 µM
same,GI50,NCI-H460 lung,16.4 µM
same,TGI,NCI-H460 lung,54.2 µM
same,GI50,NCI-H522 lung,22.3 µM
same,TGI,NCI-H522 lung,> 100 µM
same,GI50,NCI/ADR-RES ovarian,15.6 µM
same,TGI,NCI/ADR-RES ovarian,46.6 µM
same,GI50,OVCAR-3 ovarian,2.55 µM
same,TGI,OVCAR-3 ovarian,8.81 µM
same,GI50,OVCAR-4 ovarian,11.1 µM
same,TGI,OVCAR-4 ovarian,44.3 µM
same,GI50,OVCAR-5 ovarian,10.5 µM
same,TGI,OVCAR-5 ovarian,27.5 µM
same,GI50,OVCAR-8 ovarian,7.62 µM
same,TGI,OVCAR-8 ovarian,29 µM
same,GI50,PC-3 prostate,5.85 µM
same,TGI,PC-3 prostate,21.1 µM
same,GI50,RPMI-8226 leukemia,28.6 µM
same,TGI,RPMI-8226 leukemia,> 100 µM
same,GI50,RXF 393 renal,3.97 µM
same,TGI,RXF 393 renal,16 µM
same,GI50,SF-268 CNS,14 µM
same,TGI,SF-268 CNS,38.7 µM
same,GI50,SF-295 CNS,7.08 µM
same,TGI,SF-295 CNS,21.7 µM
same,GI50,SF-539 CNS,12 µM
same,TGI,SF-539 CNS,27.1 µM
same,GI50,SK-MEL-2 melanoma,17.7 µM
same,TGI,SK-MEL-2 melanoma,> 100 µM
same,GI50,SK-MEL-28 melanoma,21.9 µM
same,TGI,SK-MEL-28 melanoma,> 100 µM
same,GI50,SK-MEL-5 melanoma,7.01 µM
same,TGI,SK-MEL-5 melanoma,26.8 µM
same,GI50,SK-OV-3 ovarian,12.2 µM
same,TGI,SK-OV-3 ovarian,37.4 µM
same,GI50,SN12C renal,14.5 µM
same,TGI,SN12C renal,43.8 µM
same,GI50,SNB-19 CNS,9.42 µM
same,TGI,SNB-19 CNS,> 100 µM
same,GI50,SNB-75 CNS,6.57 µM
same,TGI,SNB-75 CNS,23.3 µM
same,GI50,SW-620 colon,17 µM
same,TGI,SW-620 colon,> 100 µM
same,GI50,T-47D breast,6.53 µM
same,TGI,T-47D breast,42.2 µM
same,GI50,TK-10 renal,5.57 µM
same,TGI,TK-10 renal,18.6 µM
same,GI50,U251 CNS,4.15 µM
same,TGI,U251 CNS,16.1 µM
same,GI50,UACC-257 melanoma,39.3 µM
same,TGI,UACC-257 melanoma,> 100 µM
same,GI50,UACC-62 melanoma,15.8 µM
same,TGI,UACC-62 melanoma,38.6 µM
same,GI50,UO-31 renal,16 µM
same,TGI,UO-31 renal,41.8 µM
